Experimental data published in patent publication US20240409585A1, “MACROCYCLIC IMMUNOMODULATORS” (priority 2021, published 2024).
Numbered stars: 1 amine (or outer) side, 2 acyl side, 3 side chain; on linkers, the order of the positions; unused ones are H or OH. Bridge positions count the residues as written; N and C are the ends. Square brackets hold non-standard residues; d marks the D form. Peptide text beside a SMILES is read from it. * marks the point of attachment. ξ: configuration not given here. Bip(4'-COOH) = N[C@@H](Cc1ccc(-c2ccc(C(=O)O)cc2)cc1)C(=O)O; X14 = O=C(C[C@H](N[*:1])C(=O)[*:2])NS(=O)(=O)c1ccc(F)cc1; X12 = O=C(NCc1cccc(C[C@H](N[*:1])C(=O)[*:2])c1)c1ccncc1; Phe(3-OCH2COOH) = N[C@@H](Cc1cccc(OCC(=O)O)c1)C(=O)O; Phe(3,4-Cl2) = N[C@@H](Cc1ccc(Cl)c(Cl)c1)C(=O)O; Phe(3-CF3) = N[C@@H](Cc1cccc(C(F)(F)F)c1)C(=O)O; Ala(morpholin-4-yl) = N[C@@H](CN1CCOCC1)C(=O)O; Phe(4-COOH) = N[C@@H](Cc1ccc(C(=O)O)cc1)C(=O)O; Bpa = N[C@@H](Cc1ccc(C(=O)c2ccccc2)cc1)C(=O)O; Bip = N[C@@H](Cc1ccc(-c2ccccc2)cc1)C(=O)O; Phe(3-F) = N[C@@H](Cc1cccc(F)c1)C(=O)O; Phe(3-I) = N[C@@H](Cc1cccc(I)c1)C(=O)O; Phe(3-Me) = Cc1cccc(C[C@H](N)C(=O)O)c1; hPhe = N[C@@H](CCc1ccccc1)C(=O)O; Cha = N[C@@H](CC1CCCCC1)C(=O)O; Carboxymethyl = O=C(O)C*; NMeA = CN[C@@H](C)C(=O)O; Orn = NCCC[C@H](N)C(=O)O; Dab = NCC[C@H](N)C(=O)O; ξC = NC(CS)C(=O)O

Legend:
[1] = target: T1, PE-labeled human PD-L1-Ig binding to Jurkat cell line over-expressing human PD-1 (Jurkat-PD-1) (Homo sapiens, UniProt Q15116); assay: Jurkat-PD-1 Cell Binding High-Content Screening Assay (CBA): Method 1; settings: Jurkat-PD-1 cells, PE-labeled PD-L1-Ig
T1 construct: expressed in transfected cells; host or cells: Jurkat

[2] = target: T1, PE-labeled human PD-L1-Ig binding to Jurkat cell line over-expressing human PD-1 (Jurkat-PD-1); assay: Jurkat-PD-1 Cell Binding High-Content Screening Assay (CBA): Method 2 (presence and absence of tween-20); settings: Jurkat-PD-1 cells, PE-labeled PD-L1-Ig 20 nM, presence or absence of tween-20 not given
Description: Jurkat-PD-1 Cell Binding High-Content Screening Assay (CBA): Method 2
Phycoerythrin (PE) was covalently linked to the Ig epitope tag of human PD-L1-Ig and fluorescently labeled PD-L1-Ig was used for binding studies with a Jurkat cell line over-expressing human PD-1 (Jurkat-PD-1). […] 100 nl of compound was added to cells followed by incubation at 37° C. for 2 hours. To interrogate potential issues with compound aggregation, compounds were tested in the presence and absence of tween-20 detergent. […] Then, 5 μl of PE-labeled PD-L1-Ig (20 nM final), diluted in DMEM supplemented with 10% fetal calf serum. […] Data was collected and processed using a Cell Insight NXT High Content Imager and associated software.

[3] = head μM, read-out: CBA Method 2 μM

T1 sequence (Q15116 25-288): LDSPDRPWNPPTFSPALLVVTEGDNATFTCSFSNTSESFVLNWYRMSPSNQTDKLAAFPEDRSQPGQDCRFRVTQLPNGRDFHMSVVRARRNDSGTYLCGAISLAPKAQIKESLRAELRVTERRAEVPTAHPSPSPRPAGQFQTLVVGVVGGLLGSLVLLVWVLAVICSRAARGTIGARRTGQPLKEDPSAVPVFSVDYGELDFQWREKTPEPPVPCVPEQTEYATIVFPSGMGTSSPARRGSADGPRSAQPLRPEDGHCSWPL

Structure (SMILES)	IC50 ([1]; μM, read-out: CBA Method 1 μM)	IC50 [2, 3]	IC50 ([1]; nM, read-out: CBA Method 1)	IC50 ([2]; nM, read-out: CBA Method 2)
CC(C)C[C@H]1NC(=O)[C@H](C)N(C)C(=O)[C@H](CCCN)NC(=O)[C@H](Cc2ccc(-c3ccccc3)cc2)NC(=O)[C@H](Cc2ccc(-c3ccc(C(=O)O)cc3)cc2)NC(=O)[C@H](Cc2cccc(C(F)(F)F)c2)NC(=O)[C@H](CC(=O)O)NC(=O)[C@H](Cc2ccc(-c3ccc(C(=O)O)cc3)cc2)NC(=O)[C@H](Cc2ccc(OCC(=O)O)cc2)NC(=O)CSC[C@@H](C(=O)N[C@@H](CCN)C(N)=O)NC(=O)[C@H](CCC(=O)O)NC(=O)[C@H](C(C)C)NC(=O)[C@H](CC2CCCCC2)NC(=O)[C@H](CCN)NC1=O [Example 5085] ({CH2CO}-Y(Carboxymethyl)[Bip(4'-COOH)]D[Phe(3-CF3)][Bip(4'-COOH)][Bip][Orn][NMeA][dL][Dab][Cha]VEC[Dab]-NH2; thioether N-14)	0.0315 µM	0.01 µM		
Cc1cccc(C[C@@H]2NC(=O)[C@H](CC(=O)O)NC(=O)[C@H](Cc3ccc(OCC(=O)O)cc3)NC(=O)[C@H](CN3CCOCC3)NC(=O)CSC[C@@H](C(=O)N[C@@H](CCN)C(N)=O)NC(=O)[C@H](CCCN)NC(=O)[C@H](C(C)C)NC(=O)[C@H](Cc3ccc(Cl)c(Cl)c3)NC(=O)[C@H](CCN)NC(=O)[C@@H](CC(C)C)NC(=O)[C@H](C)N(C)C(=O)[C@H](CCC(N)=O)NC(=O)[C@H](Cc3ccc(-c4ccccc4)cc3)NC(=O)[C@H](Cc3ccc(C(=O)O)cc3)NC2=O)c1 [Example 5042] ({CH2CO}-[Ala(morpholin-4-yl)]Y(Carboxymethyl)D[Phe(3-Me)][Phe(4-COOH)][Bip]Q[NMeA][dL][Dab][Phe(3,4-Cl2)]V[Orn]C[Dab]-NH2; thioether N-14)	0.0639 µM	0.0689 µM		
CC(C)C[C@@H]1NC(=O)[C@H](Cc2c[nH]c3ccccc23)NC(=O)[C@H](CC(N)=O)NC(=O)[C@H](Cc2cccc(OCC(=O)O)c2)NC(=O)[C@H](Cc2ccccc2)NC(=O)CSC[C@@H](C(=O)NCC(N)=O)NC(=O)[C@H](CO)NC(=O)[C@H](C(C)C)NC(=O)[C@H](CC(C)C)NC(=O)[C@H](CC(N)=O)NC(=O)[C@@H](CC(C)C)NC(=O)[C@H](C)N(C)C(=O)[C@H](C(C)C)NC(=O)[C@H](Cc2ccc(-c3ccccc3)cc2)NC1=O [Example 5032] ({CH2CO}-F[Phe(3-OCH2COOH)]NWL[Bip]V[NMeA][dL]NLVSCG-NH2; thioether N-14)	0.0987 µM	0.108 µM		
Cc1cccc(C[C@@H]2NC(=O)[C@H](CC(=O)O)NC(=O)[C@H](Cc3ccc(C(=O)O)cc3)NC(=O)[C@H](CC(C)C)NC(=O)CSC[C@@H](C(=O)N[C@@H](CCN)C(N)=O)NC(=O)[C@H](CCCN)NC(=O)[C@H](C(C)C)NC(=O)[C@H](Cc3cccc(F)c3)NC(=O)[C@H](CCN)NC(=O)[C@@H](CC(C)C)NC(=O)[C@H](C)N(C)C(=O)[C@H](CCC(N)=O)NC(=O)[C@H](Cc3ccc(-c4ccccc4)cc3)NC(=O)[C@H](Cc3ccc(-c4ccc(C(=O)O)cc4)cc3)NC2=O)c1 [Example 5064] ({CH2CO}-L[Phe(4-COOH)]D[Phe(3-Me)][Bip(4'-COOH)][Bip]Q[NMeA][dL][Dab][Phe(3-F)]V[Orn]C[Dab]-NH2; thioether N-14)	0.0544 µM	0.0348 µM		
CC(C)C[C@H]1NC(=O)[C@H](C)N(C)C(=O)[C@H](CCC(N)=O)NC(=O)[C@H](Cc2ccc(-c3ccccc3)cc2)NC(=O)[C@H](Cc2cccc(CNC(=O)c3ccncc3)c2)NC(=O)[C@H](Cc2cccc(I)c2)NC(=O)[C@H](CC(=O)O)NC(=O)[C@H](Cc2ccc(OCC(=O)O)cc2)NC(=O)[C@H](CN2CCOCC2)NC(=O)CSC[C@@H](C(=O)N[C@@H](CCN)C(N)=O)NC(=O)[C@H](CCCN)NC(=O)[C@H](C(C)C)NC(=O)[C@H](CC2CCCCC2)NC(=O)[C@H](CCN)NC1=O [Example 5020] ({CH2CO}-[Ala(morpholin-4-yl)]Y(Carboxymethyl)D[Phe(3-I)][X12][Bip]Q[NMeA][dL][Dab][Cha]V[Orn]C[Dab]-NH2; thioether N-14)			0.0058 µM	0.005 µM
CC(C)C[C@H]1NC(=O)[C@H](C)N(C)C(=O)[C@H](CCC(N)=O)NC(=O)[C@H](Cc2ccc(-c3ccccc3)cc2)NC(=O)[C@H](Cc2ccc(C(=O)O)cc2)NC(=O)[C@H](Cc2cccc(C(F)(F)F)c2)NC(=O)[C@H](CC(=O)O)NC(=O)[C@H](Cc2ccc(OCC(=O)O)cc2)NC(=O)[C@H](CN2CCOCC2)NC(=O)CSC[C@@H](C(=O)N[C@@H](CCN)C(N)=O)NC(=O)[C@H](CCCN)NC(=O)[C@H](C(C)C)NC(=O)[C@H](CC2CCCCC2)NC(=O)[C@H](CCN)NC1=O [Example 5013] ({CH2CO}-[Ala(morpholin-4-yl)]Y(Carboxymethyl)D[Phe(3-CF3)][Phe(4-COOH)][Bip]Q[NMeA][dL][Dab][Cha]V[Orn]C[Dab]-NH2; thioether N-14)			0.011 µM	0.004 µM
CC(C)C[C@H]1NC(=O)[C@H](C)N(C)C(=O)[C@H](CCCN)NC(=O)[C@H](Cc2ccc(-c3ccccc3)cc2)NC(=O)[C@H](Cc2ccc(-c3ccc(C(=O)O)cc3)cc2)NC(=O)[C@H](Cc2cccc(C(F)(F)F)c2)NC(=O)[C@H](CC(=O)O)NC(=O)[C@H](Cc2ccc(-c3ccc(C(=O)O)cc3)cc2)NC(=O)[C@H](Cc2ccc(OCC(=O)O)cc2)NC(=O)CSC[C@@H](C(=O)N[C@@H](CCN)C(N)=O)NC(=O)[C@H](CCCN)NC(=O)[C@H](C(C)C)NC(=O)[C@H](CC2CCCCC2)NC(=O)[C@H](CCN)NC1=O [Example 5087] ({CH2CO}-Y(Carboxymethyl)[Bip(4'-COOH)]D[Phe(3-CF3)][Bip(4'-COOH)][Bip][Orn][NMeA][dL][Dab][Cha]V[Orn]C[Dab]-NH2; thioether N-14)	0.03 µM	0.11 µM		
Cc1cccc(C[C@@H]2NC(=O)[C@H](CC(=O)O)NC(=O)[C@H](Cc3ccc(C(=O)O)cc3)NC(=O)[C@H](CC(C)C)NC(=O)CSC[C@@H](C(=O)N[C@@H](CCN)C(N)=O)NC(=O)[C@H](CCCN)NC(=O)[C@H](C(C)C)NC(=O)[C@H](CC3CCCCC3)NC(=O)[C@H](CCN)NC(=O)[C@@H](CC(C)C)NC(=O)[C@H](C)N(C)C(=O)[C@H](CCC(N)=O)NC(=O)[C@H](Cc3ccc(-c4ccccc4)cc3)NC(=O)[C@H](Cc3ccc(-c4ccc(C(=O)O)cc4)cc3)NC2=O)c1 [Example 5063] ({CH2CO}-L[Phe(4-COOH)]D[Phe(3-Me)][Bip(4'-COOH)][Bip]Q[NMeA][dL][Dab][Cha]V[Orn]C[Dab]-NH2; thioether N-14)	0.0054 µM	0.0052 µM		
Cc1cccc(C[C@@H]2NC(=O)[C@H](CC(=O)O)NC(=O)[C@H](Cc3ccc(OCC(=O)O)cc3)NC(=O)[C@H](CN3CCOCC3)NC(=O)CSCC(C(=O)N[C@@H](CCN)C(N)=O)NC(=O)[C@H](CCCN)NC(=O)[C@H](C(C)C)NC(=O)[C@H](CC3CCCCC3)NC(=O)[C@H](CCN)NC(=O)[C@@H](CC(C)C)NC(=O)[C@H](C)N(C)C(=O)[C@H](CCC(N)=O)NC(=O)[C@H](Cc3ccc(-c4ccccc4)cc3)NC(=O)[C@H](Cc3ccc(C(=O)c4ccccc4)cc3)NC2=O)c1 (stereo partly drawn) [Example 5031] ({CH2CO}-[Ala(morpholin-4-yl)]Y(Carboxymethyl)D[Phe(3-Me)][Bpa][Bip]Q[NMeA][dL][Dab][Cha]V[Orn][ξC][Dab]-NH2; thioether N-14)	0.0087 µM	0.0068 µM		
CC(C)C[C@H]1NC(=O)[C@H](C)N(C)C(=O)[C@H](CCC(N)=O)NC(=O)[C@H](Cc2ccc(-c3ccccc3)cc2)NC(=O)[C@H](Cc2ccc(C(=O)O)cc2)NC(=O)[C@H](Cc2cccc(C(F)(F)F)c2)NC(=O)[C@H](CC(=O)NS(=O)(=O)c2ccc(F)cc2)NC(=O)[C@H](Cc2ccc(C(=O)O)cc2)NC(=O)[C@H](CN2CCOCC2)NC(=O)CSC[C@@H](C(=O)N[C@@H](CCN)C(N)=O)NC(=O)[C@H](CCCN)NC(=O)[C@H](C(C)C)NC(=O)[C@H](CC2CCCCC2)NC(=O)[C@H](CCN)NC1=O [Example 5079] ({CH2CO}-[Ala(morpholin-4-yl)][Phe(4-COOH)][X14][Phe(3-CF3)][Phe(4-COOH)][Bip]Q[NMeA][dL][Dab][Cha]V[Orn]C[Dab]-NH2; thioether N-14)	0.138 µM	0.229 µM		
Cc1cccc(C[C@@H]2NC(=O)[C@H](CC(=O)O)NC(=O)[C@H](Cc3ccc(OCC(=O)O)cc3)NC(=O)[C@H](CN3CCOCC3)NC(=O)CSC[C@@H](C(=O)N[C@@H](CCN)C(N)=O)NC(=O)[C@H](CCCN)NC(=O)[C@H](C(C)C)NC(=O)[C@H](CCc3ccccc3)NC(=O)[C@H](CCN)NC(=O)[C@@H](CC(C)C)NC(=O)[C@H](C)N(C)C(=O)[C@H](CCC(N)=O)NC(=O)[C@H](Cc3ccc(-c4ccccc4)cc3)NC(=O)[C@H](Cc3ccc(C(=O)O)cc3)NC2=O)c1 [Example 5015] ({CH2CO}-[Ala(morpholin-4-yl)]Y(Carboxymethyl)D[Phe(3-Me)][Phe(4-COOH)][Bip]Q[NMeA][dL][Dab][hPhe]V[Orn]C[Dab]-NH2; thioether N-14)	0.21 µM	0.31 µM		
CC(C)C[C@H]1NC(=O)[C@H](C)N(C)C(=O)[C@H](CCC(N)=O)NC(=O)[C@H](Cc2ccc(-c3ccccc3)cc2)NC(=O)[C@H](Cc2ccc(C(=O)O)cc2)NC(=O)[C@H](Cc2cccc(C(F)(F)F)c2)NC(=O)[C@H](CC(=O)O)NC(=O)[C@H](Cc2ccc(OCC(=O)O)cc2)NC(=O)[C@H](CN2CCOCC2)NC(=O)CSC[C@@H](C(=O)N[C@@H](CCN)C(N)=O)NC(=O)[C@H](CCCN)NC(=O)[C@H](C(C)C)NC(=O)[C@H](CC2CCCCC2)NC(=O)[C@H](CCN)NC1=O [Example 5014] ({CH2CO}-[Ala(morpholin-4-yl)]Y(Carboxymethyl)D[Phe(3-CF3)][Phe(4-COOH)][Bip]Q[NMeA][dL][Dab][Cha]V[Orn]C[Dab]-NH2; thioether N-14)	0.17 µM	0.04 µM		
